Reference: patent publication US10654818B2, “Furane derivatives as inhibitors of ATAD2” (BAYER PHARMA AKTIENGESELLSCHAFT, priority 2015, dated 2020)

Key:
MCF7 breast cancer cells = experiment: Cell proliferation assay (alamarBlue), MCF7; type: cell-based; details: Homo sapiens, 72 h incubation, GI50 = half-maximal growth inhibition
Experimental: (§1) The effect of ATAD2 inhibitory compounds on cancer cell proliferation might be measured as below. For example; MCF7 breast cancer cells might be seeded into 96-well microtiter plates at 2000 cells/well in 90 μl cell culture media (RPMI 1640, 10% FCS, 2 mM L-Glutamine, 10 μg/ml human Insulin, […]) and incubated for 24 h at 37° C. and 5% CO2. Note, the culturing conditions might vary from cell line to cell line depending on their standard culturing conditions. Compounds might be then delivered to the microtiter assay plates and, following a 72 h long incubation period at 37° C. and 5% CO2, the viability of the cells might be measured with addition of alamarBlue® (Invitrogen) to the medium in Victor X3 Multilabel Plate Reader (Perkin Elmer).
(§2) GI50 means half-maximal growth inhibition.

[1] = target: T1, recombinant, N-terminally GST-tagged ATAD2 bromodomain amino acids 981-1108 (Homo sapiens, UniProt Q6PL18); experiment: TR-FRET assay: disruption of the interaction between ATAD2 and acetylated Histone H4 (Ac-H4) peptide; type: binding; details: inhibition of ATAD2/Ac-H4 complex formation; 10 nM ATAD2, 50 nM Ac-H4 peptide
T1 construct: ATAD2 bromodomain amino acids 981-1108; made in house; host or cells: E. coli
T1 sequence (Q6PL18 981-1108): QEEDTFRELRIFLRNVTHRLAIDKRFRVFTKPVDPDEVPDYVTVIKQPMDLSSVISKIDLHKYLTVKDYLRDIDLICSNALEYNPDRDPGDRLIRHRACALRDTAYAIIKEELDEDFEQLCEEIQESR
Outline: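 10 nM protein (final) pre-incubated 10 min at 22 °C with compound (0.1 nM-20 μM, 11 points, duplicate), then 50 nM biotinylated Ac-H4 peptide plus anti-GST-XL665/streptavidin-Eu added for 1 h at 22 °C in HEPES pH 7.5 buffer. 665/622 nm emission ratio read; IC50 from 4-parameter fit of normalized inhibition.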

NCl-H526 lung cancer = experiment: Cell proliferation assay (alamarBlue), NCl-H526; type: cell-based; details: GI50 = half-maximal growth inhibition
Experimental: as §1, §2

Structure (SMILES)	GI50 (MCF7 breast cancer cells) [µM]	IC50 [1] [µM]	GI50 (NCl-H526 lung cancer) [µM]
COc1cc(Cl)c(C(=O)N[C@@H](CO)Cc2ccc(C#N)cc2)cc1-c1ccc(CN[C@H](C)c2ccc(C)cc2)o1 [Example 81, 2-chloro-N-[(2R)-1-(4-cyanophenyl)-3-hydroxypropan-2-yl]-4-methoxy-5-[5-({[(1R)-1-(4-methylphenyl)ethyl]amino}methyl)-2-furyl]benzamide]	10.4	0.301	10.2
COc1cc(Cl)c(C(=O)N[C@@H](CN[C@H]2CC[C@@H](N)CC2)Cc2ccc(C#N)cc2)cc1-c1ccc(CN[C@H](C)c2ccc(C)cc2)o1 [Example 86, N-[(2R)-1-[(4-aminocyclohexyl)amino]-3-(4-cyanophenyl)propan-2-yl]-2-chloro-4-methoxy-5-[5-({[(1R)-1-(4-methylphenyl)ethyl]amino}methyl)-2-furyl]benzamide]	3.2	0.166	2.4
Cc1ccc([C@@H](C)NCc2ccc(-c3cc(C(=O)N[C@@H](CO)Cc4ccc(C#N)cc4)c(Cl)cc3O)o2)cc1 [Example 90, 2-chloro-N-[(2R)-1-(4-cyanophenyl)-3-hydroxypropan-2-yl]-4-hydroxy-5-[5-({[(1R)-1-(4-methylphenyl)ethyl]amino}methyl)-2-furyl]benzamide]	10.8	0.367	19.1
